Data published in ChEMBL document CHEMBL1156506, “Changes to the HIV long terminal repeat and to HIV integrase differentially impact HIV integrase assembly, activity, and the binding of strand transfer inhibitors” (J Biol Chem, 2007).

Key:
[1] = system: Human immunodeficiency virus; experiment: Inhibition of HIV wild type integrase assessed as strand transfer activity using U5 ApTCA LTR by scintillation proximity assay relative to wild type LTR; design: scale not given: the % may be the effect or the level left; conditions: tested as the 3H-labelled form
[2] = system: Human immunodeficiency virus; experiment: Binding affinity to HIV wild type integrase using U5 ATCA LTR relative to wild type LTR; conditions: tested as the 3H-labelled form

Structure (SMILES): Cn1c(N2CCCCS2(=O)=O)nc(C(=O)NCc2ccc(F)cc2)c(O)c1=O [BMS-707035]
- Activity [1]: 2%
- Activity [2]: < 25%
